Measurements: patent US11896573B2, “Pharmaceutical compositions and pharmacokinetics of a gamma-hydroxybutyric acid derivative” (priority 2020, dated 2024)
“And” between values parts separate entries of the source, which are not always exact repeats. Equal values may be shown once. Read-outs that look alike come from different tables or passages of the source.

Tests used:
[1] = Multiple ascending dose study, plasma pharmacokinetics of Compound (1) and GHB; format: in vivo, human; settings: for AUC(0-inf) / AUC(0-t) / Cmax / half-life / Tmax: human, plasma, oral; for Tmax: read-out: Compound (1) plasma Tmax, Median
Protocol: The plasma concentrations of Compound (1) and GHB in plasma in healthy human subjects were measured using liquid chromatography tandem mass-spectroscopy and evaluated using PHOENIX™ WINNONLIN® version 8.1 (Pharsight Corporation, USA) and MICROSOFT® EXCEL® (Microsoft Corporation, USA).
All randomized subjects who received Compound (1), with available pharmacokinetic (PK) data and without relevant deviations interfering with the PK evaluations, were included. Subjects who received only placebo were excluded from the PK population. In addition, the PK population was used for the summaries and analyses of all PK data.
A multiple ascending dose study was undertaken to evaluate the pharmacokinetics of multiple doses of Compound (1) in 3 cohorts of healthy subjects (with 8 subjects/cohort). Within each cohort, the subjects were randomized to receive Compound (1) or placebo at a ratio of 6:2 (active: placebo) for 7 days (or up to 9 days if the cohort included a titration period).
After fasting for at least 3 hours following a standard meal, subjects were randomized on Day 1 and the first dose of study drug (either target dose or titration dose) was administered. The first cohort of subjects (Cohort 8) received the second dose administration at approximately four hours after receiving the first dose. The subsequent […] cohorts (Cohorts 9 and 10) received only one dose per day.
For the first cohort (Cohort 8), the dose used was 6.0 g divided into two equal doses four hours apart for 7 days starting from Day 4 “Dose Day 1” to Day 10 “Dose Day 7”. Subsequent Cohorts 9, 10 received a single daily dose of 4.5 g and 6.0 g during the titration period (Day 1 for Cohort 9, Day 1 and Day 2 for Cohort 10, and after a titration period for 7 days starting from Day 4 “Dose Day 1” to Day 10 “Dose Day 7”. Cohort 11 was not conducted due to API availability.

[2] = Cohort 10 (6.0 g/day in a single dose), Dosing Day 10

CC(C)[C@H](N)C(=O)OCCCC(=O)O [Compound (1), 4-((L-valyl)oxy)butanoic acid]
Compound (1) CL/F, Mean [1, 2]: 395 L/h
Compound (1) CL/F, Median [1, 2]: 354 L/h
Compound (1) CL/F, Min [1, 2]: 284 L/h
Compound (1) plasma AUC0-inf, Max [1, 2]: 21100 ng·h/mL
Compound (1) plasma AUC0-inf, Min [1, 2]: 10400 ng·h/mL
Compound (1) plasma AUC0-tlast, Max [1, 2]: 21100 ng·h/mL
Compound (1) plasma AUC0-tlast, Min [1, 2]: 10400 ng·h/mL
Compound (1) plasma Cmax, Max [1, 2]: 24500 ng/mL
Compound (1) plasma Cmax, Min [1, 2]: 11700 ng/mL
Compound (1) plasma T1/2, Max [1, 2]: 31.2 min
Compound (1) plasma T1/2, Min [1, 2]: 17.4 min
AUC(0-inf) ([1]; 4.5 g/day, Cohort 9 (4.5 g/day in a single dose), Dosing Day 4, read-out: Compound (1) plasma AUC0-inf, Mean): 12000 ng·h/mL
AUC(0-inf) ([1]; 4.5 g/day, Cohort 9 (4.5 g/day in a single dose), Dosing Day 4, read-out: Compound (1) plasma AUC0-inf, Median): 11800 ng·h/mL
AUC(0-t) ([1]; 4.5 g/day, Cohort 9 (4.5 g/day in a single dose), Dosing Day 4, read-out: Compound (1) plasma AUC0-tlast, Mean): 11300 ng·h/mL
AUC(0-t) ([1]; 4.5 g/day, Cohort 9 (4.5 g/day in a single dose), Dosing Day 4, read-out: Compound (1) plasma AUC0-tlast, Median): 11700 ng·h/mL
Cmax ([1]; 4.5 g/day, Cohort 9 (4.5 g/day in a single dose), Dosing Day 4, read-out: Compound (1) plasma Cmax, Mean): 15600 ng/mL
Cmax ([1]; 4.5 g/day, Cohort 9 (4.5 g/day in a single dose), Dosing Day 4, read-out: Compound (1) plasma Cmax, Median): 16800 ng/mL
half-life ([1]; 4.5 g/day, Cohort 9 (4.5 g/day in a single dose), Dosing Day 4, read-out: Compound (1) plasma T1/2, Mean (converted)): 29.4 min
half-life ([1]; 4.5 g/day, Cohort 9 (4.5 g/day in a single dose), Dosing Day 4, read-out: Compound (1) plasma T1/2, Median (converted)): 32.4 min
AUC(0-inf) ([1]; 4.5 g/day, Cohort 9 (4.5 g/day in a single dose), Dosing Day 10, read-out: Compound (1) plasma AUC0-inf, Mean): 10800 ng·h/mL
AUC(0-inf) ([1]; 4.5 g/day, Cohort 9 (4.5 g/day in a single dose), Dosing Day 10, read-out: Compound (1) plasma AUC0-inf, Median): 10200 ng·h/mL
AUC(0-t) ([1]; 4.5 g/day, Cohort 9 (4.5 g/day in a single dose), Dosing Day 10, read-out: Compound (1) plasma AUC0-tlast, Mean): 10700 ng·h/mL
AUC(0-t) ([1]; 4.5 g/day, Cohort 9 (4.5 g/day in a single dose), Dosing Day 10, read-out: Compound (1) plasma AUC0-tlast, Median): 10100 ng·h/mL
Cmax ([1]; 4.5 g/day, Cohort 9 (4.5 g/day in a single dose), Dosing Day 10, read-out: Compound (1) plasma Cmax, Mean): 14800 ng/mL
Cmax ([1]; 4.5 g/day, Cohort 9 (4.5 g/day in a single dose), Dosing Day 10, read-out: Compound (1) plasma Cmax, Median): 15900 ng/mL
half-life ([1]; 4.5 g/day, Cohort 9 (4.5 g/day in a single dose), Dosing Day 10, read-out: Compound (1) plasma T1/2, Mean (converted)): 33.6 min
half-life ([1]; 4.5 g/day, Cohort 9 (4.5 g/day in a single dose), Dosing Day 10, read-out: Compound (1) plasma T1/2, Median (converted)): 33.6 min
AUC(0-inf) ([1]; 6 g/day, Cohort 8 (6.0 g/day divided into equal 2 doses), Dosing Day 4, read-out: Compound (1) plasma AUC0-inf, Mean): 14500 ng·h/mL
AUC(0-inf) ([1]; 6 g/day, Cohort 8 (6.0 g/day divided into equal 2 doses), Dosing Day 4, read-out: Compound (1) plasma AUC0-inf, Median): 14800 ng·h/mL
AUC(0-t) ([1]; 6 g/day, Cohort 8 (6.0 g/day divided into equal 2 doses), Dosing Day 4, read-out: Compound (1) plasma AUC0-tlast, Mean): 14400 ng·h/mL
AUC(0-t) ([1]; 6 g/day, Cohort 8 (6.0 g/day divided into equal 2 doses), Dosing Day 4, read-out: Compound (1) plasma AUC0-tlast, Median): 14800 ng·h/mL
Cmax ([1]; 6 g/day, Cohort 8 (6.0 g/day divided into equal 2 doses), Dosing Day 4, read-out: Compound (1) plasma Cmax, Mean): 12100 ng/mL
Cmax ([1]; 6 g/day, Cohort 8 (6.0 g/day divided into equal 2 doses), Dosing Day 4, read-out: Compound (1) plasma Cmax, Median): 11500 ng/mL
half-life ([1]; 6 g/day, Cohort 8 (6.0 g/day divided into equal 2 doses), Dosing Day 4, read-out: Compound (1) plasma T1/2, Mean (converted)): 31.8 min
half-life ([1]; 6 g/day, Cohort 8 (6.0 g/day divided into equal 2 doses), Dosing Day 4, read-out: Compound (1) plasma T1/2, Median (converted)): 16.2 min
AUC(0-inf) ([1]; 6 g/day, Cohort 8 (6.0 g/day divided into equal 2 doses), Dosing Day 10, read-out: Compound (1) plasma AUC0-inf, Mean): 14900 ng·h/mL
AUC(0-inf) ([1]; 6 g/day, Cohort 8 (6.0 g/day divided into equal 2 doses), Dosing Day 10, read-out: Compound (1) plasma AUC0-inf, Median): 14100 ng·h/mL
AUC(0-t) ([1]; 6 g/day, Cohort 8 (6.0 g/day divided into equal 2 doses), Dosing Day 10, read-out: Compound (1) plasma AUC0-tlast, Mean): 14800 ng·h/mL
AUC(0-t) ([1]; 6 g/day, Cohort 8 (6.0 g/day divided into equal 2 doses), Dosing Day 10, read-out: Compound (1) plasma AUC0-tlast, Median): 14100 ng·h/mL
Cmax ([1]; 6 g/day, Cohort 8 (6.0 g/day divided into equal 2 doses), Dosing Day 10, read-out: Compound (1) plasma Cmax, Mean): 11500 ng/mL
Cmax ([1]; 6 g/day, Cohort 8 (6.0 g/day divided into equal 2 doses), Dosing Day 10, read-out: Compound (1) plasma Cmax, Median): 11300 ng/mL
half-life ([1]; 6 g/day, Cohort 8 (6.0 g/day divided into equal 2 doses), Dosing Day 10, read-out: Compound (1) plasma T1/2, Mean (converted)): 20.4 min
half-life ([1]; 6 g/day, Cohort 8 (6.0 g/day divided into equal 2 doses), Dosing Day 10, read-out: Compound (1) plasma T1/2, Median (converted)): 16.8 min
AUC(0-inf) ([1]; 6 g/day, Cohort 10 (6.0 g/day in a single dose), Dosing Day 4, read-out: Compound (1) plasma AUC0-inf, Mean): 17200 ng·h/mL
AUC(0-inf) ([1]; 6 g/day, Cohort 10 (6.0 g/day in a single dose), Dosing Day 4, read-out: Compound (1) plasma AUC0-inf, Median): 19000 ng·h/mL
AUC(0-t) ([1]; 6 g/day, Cohort 10 (6.0 g/day in a single dose), Dosing Day 4, read-out: Compound (1) plasma AUC0-tlast, Mean): 17100 ng·h/mL
AUC(0-t) ([1]; 6 g/day, Cohort 10 (6.0 g/day in a single dose), Dosing Day 4, read-out: Compound (1) plasma AUC0-tlast, Median): 18900 ng·h/mL
Cmax ([1]; 6 g/day, Cohort 10 (6.0 g/day in a single dose), Dosing Day 4, read-out: Compound (1) plasma Cmax, Mean): 21300 ng/mL
Cmax ([1]; 6 g/day, Cohort 10 (6.0 g/day in a single dose), Dosing Day 4, read-out: Compound (1) plasma Cmax, Median): 23500 ng/mL
half-life ([1]; 6 g/day, Cohort 10 (6.0 g/day in a single dose), Dosing Day 4, read-out: Compound (1) plasma T1/2, Mean (converted)): 24.6 min
half-life ([1]; 6 g/day, Cohort 10 (6.0 g/day in a single dose), Dosing Day 4, read-out: Compound (1) plasma T1/2, Median (converted)): 24 min
AUC(0-inf) ([1]; 6 g/day, Cohort 10 (6.0 g/day in a single dose), Dosing Day 10, read-out: Compound (1) plasma AUC0-inf, Mean): 16400 ng·h/mL
AUC(0-inf) ([1]; 6 g/day, Cohort 10 (6.0 g/day in a single dose), Dosing Day 10, read-out: Compound (1) plasma AUC0-inf, Median): 16900 ng·h/mL
AUC(0-t) ([1]; 6 g/day, Cohort 10 (6.0 g/day in a single dose), Dosing Day 10, read-out: Compound (1) plasma AUC0-tlast, Mean): 16300 ng·h/mL
AUC(0-t) ([1]; 6 g/day, Cohort 10 (6.0 g/day in a single dose), Dosing Day 10, read-out: Compound (1) plasma AUC0-tlast, Median): 16800 ng·h/mL
Cmax ([1]; 6 g/day, Cohort 10 (6.0 g/day in a single dose), Dosing Day 10, read-out: Compound (1) plasma Cmax, Mean): 18900 ng/mL
Cmax ([1]; 6 g/day, Cohort 10 (6.0 g/day in a single dose), Dosing Day 10, read-out: Compound (1) plasma Cmax, Median): 20000 ng/mL
half-life ([1]; 6 g/day, Cohort 10 (6.0 g/day in a single dose), Dosing Day 10, read-out: Compound (1) plasma T1/2, Mean (converted)): 21.6 min
half-life ([1]; 6 g/day, Cohort 10 (6.0 g/day in a single dose), Dosing Day 10, read-out: Compound (1) plasma T1/2, Median (converted)): 21 min
Tmax ([1]; Cohort 8 (6.0 g/day divided into equal 2 doses), Dosing Day 4): 30 min
Tmax ([1]; Cohort 9 (4.5 g/day in a single dose), Dosing Day 4): 30 min
Purity (Area %) (pH 1.2): 99.25 Area % and 99.22 Area % and 98.95 Area %
Purity (Area %) (pH 4.5): 99.25 Area % and 99.05 Area % and 98.35 Area %
Purity (Area %) (pH 6.8): 99.08 Area % and 97.58 Area % and 93.14 Area %
Purity (Area %) (pH 7.4): 98.84 Area % and 95.74 Area % and 87.89 Area %
